Among the test systems are ACHN; HL-60; HOP-62; HT-29; K562; KM12; LOX IMVI; MDA-MB-231; MDA-MB-435; MOLT-4; NCI-H226; NCI-H23; NCI-H460; OVCAR-4; RPMI-8226; RXF 393; SK-MEL-2; TK-10; UACC-257; SF-539.
Common to all, as to assay: NCI anticancer screen, dose series, 48 h

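Cultured in 96-well plates, cells were exposed to test compound for 48 hours across five concentrations. GI50: concentration for 50% inhibition of growth.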 Activity calls are given as the source filed them. No stated cut-off is given here; in the data, active = GI50 up to about 1.1 µM and inactive = higher.

`COc1ccc2c(c1)-c1c(c3cc(OC)ccc3n1CCCN(C)C)CC2`: the GI50 was 14.3 µM (inactive) in the experiment with ACHN; 15.3 µM (inactive) in the experiment with HL-60; 14.3 µM (inactive) in the experiment with HOP-62; 2.81 µM (inactive) in the experiment on HT-29; 4.3 µM (inactive) in the experiment on K562; 7.93 µM (inactive) in the experiment with KM12. Moreover, the GI50 in the experiment on LOX IMVI is 4.06 µM (inactive); with MDA-MB-231, 13 µM (inactive); in the experiment on MDA-MB-435, 5.55 µM (inactive); with MOLT-4, 5.93 µM (inactive); in the experiment on NCI-H226 it was 1.84 µM (inactive); in the experiment with NCI-H23, 16.8 µM (inactive). For the same compound, the GI50 in the experiment with NCI-H460 is 10.1 µM (inactive); with OVCAR-4 it was 11 µM (inactive); in the experiment with RPMI-8226 it was 5.24 µM (inactive); in the experiment on RXF 393 it was 6.93 µM (inactive); with SK-MEL-2, 15.8 µM (inactive); with TK-10 it was 16.5 µM (inactive). The GI50 with UACC-257 was 3.48 µM (inactive).
With `O=C(Nc1noc(-c2ccccc2)n1)c1ccccc1CNc1noc(-c2ccccc2)n1`, the GI50 with ACHN, in the experiment with HL-60, in the experiment on HOP-62, in the experiment with HT-29, in the experiment with K562 and in the experiment on KM12 was > 100 µM (inactive) each time. Also, the GI50 in the experiment on LOX IMVI, with MDA-MB-231, with MDA-MB-435, in the experiment with MOLT-4, in the experiment on NCI-H226 and in the experiment with NCI-H23 was > 100 µM (inactive) in each case. Moreover, the GI50 in the experiment on NCI-H460, in the experiment with OVCAR-4, with RPMI-8226, in the experiment on RXF 393, in the experiment with SF-539 and in the experiment on TK-10 was > 100 µM (inactive) throughout. The GI50 in the experiment with UACC-257 is > 100 µM (inactive).
For `CCCC(=O)n1[nH]c(=O)n(-c2ccc(Cl)cc2)c1=O`, the GI50 in the experiment with ACHN, in the experiment on HL-60, in the experiment on HOP-62, in the experiment with HT-29, with K562 and in the experiment on KM12 was > 100 µM (inactive) in each case. Also, the GI50 with LOX IMVI, with MDA-MB-231, in the experiment with MDA-MB-435, in the experiment with MOLT-4, in the experiment on NCI-H226 and with NCI-H23 was > 100 µM (inactive) throughout. The GI50 in the experiment with NCI-H460, in the experiment with OVCAR-4, in the experiment with RPMI-8226, with RXF 393, in the experiment with SK-MEL-2 and in the experiment with TK-10 was > 100 µM (inactive) throughout. Further, the GI50 in the experiment with UACC-257 is > 100 µM (inactive).
Consider `CC(=O)O[C@H]1CC[C@@]2(C)[C@@H](CC[C@@H]3[C@@H]2CC(=O)[C@@]2(C)[C@H]3C[C@@H]3CC(C)=CC(=O)[C@@H]32)C1`, for which the GI50 was 66.7 µM (inactive) in the experiment on ACHN; 5.04 µM (inactive) in the experiment on HL-60; 55.8 µM (inactive) in the experiment on HOP-62; 31 µM (inactive) in the experiment with HT-29; 40.5 µM (inactive) in the experiment with K562; 57 µM (inactive) in the experiment on KM12. The GI50 is > 100 µM (inactive) with LOX IMVI; > 100 µM (inactive) with MDA-MB-231; 58.6 µM (inactive) in the experiment on MDA-MB-435; > 100 µM (inactive) with NCI-H226; > 100 µM (inactive) in the experiment with NCI-H23; 56.5 µM (inactive) in the experiment on OVCAR-4. Further, the GI50 in the experiment on RPMI-8226 is 16 µM (inactive); with RXF 393, 30.2 µM (inactive); with SK-MEL-2 it was > 100 µM (inactive); in the experiment on TK-10, > 100 µM (inactive); in the experiment with UACC-257 it was 62.1 µM (inactive).
Turning to `O=C(CSc1nnc(-c2ccccn2)s1)N/N=C/c1ccc([N+](=O)[O-])cc1`, the GI50 in the experiment with ACHN is 53.8 µM (inactive); with HL-60, > 100 µM (inactive); in the experiment with HOP-62, 35.6 µM (inactive); with HT-29 it was > 100 µM (inactive); with K562, > 100 µM (inactive); in the experiment with KM12 it was > 100 µM (inactive). Moreover, the GI50 was > 100 µM (inactive) in the experiment on LOX IMVI; 15.9 µM (inactive) in the experiment on MDA-MB-231; > 100 µM (inactive) in the experiment on MDA-MB-435; > 100 µM (inactive) in the experiment with MOLT-4; > 100 µM (inactive) with NCI-H226; > 100 µM (inactive) with NCI-H23. In addition, the GI50 in the experiment with NCI-H460 was > 100 µM (inactive); in the experiment with OVCAR-4 it was > 100 µM (inactive); in the experiment with RXF 393, 12.1 µM (inactive); in the experiment with SF-539, 59.2 µM (inactive); in the experiment on SK-MEL-2, 77.1 µM (inactive); in the experiment on TK-10, 21.7 µM (inactive). Moreover, the GI50 with UACC-257 is > 100 µM (inactive).
Consider `CCOC1NC(=O)Oc2ccccc21` (centres undefined), for which the GI50 in the experiment on ACHN, in the experiment on HL-60, in the experiment with HOP-62, in the experiment with HT-29, in the experiment on K562 and in the experiment with KM12 was > 100 µM (inactive) throughout. Moreover, the GI50 with LOX IMVI, in the experiment with MDA-MB-231, in the experiment with MDA-MB-435, in the experiment on MOLT-4, in the experiment with NCI-H226 and in the experiment with NCI-H23 was > 100 µM (inactive) throughout. For the same compound, the GI50 in the experiment on NCI-H460, in the experiment on OVCAR-4, with RXF 393, with SF-539, in the experiment on SK-MEL-2 and in the experiment with TK-10 was > 100 µM (inactive) throughout. In addition, in the experiment with UACC-257, the GI50 is > 100 µM (inactive).
As to `COc1ncc(C#CC(=O)c2ccccc2OC)c(OC)n1`, the GI50 in the experiment with ACHN is 1.69 µM (inactive); in the experiment with HL-60, 0.432 µM (active); with HOP-62, 17.7 µM (inactive); in the experiment with HT-29, 1.57 µM (inactive); in the experiment on K562, 0.39 µM (active); with KM12 it was 5.7 µM (inactive). The GI50 is 0.281 µM (active) in the experiment on LOX IMVI; 0.92 µM (active) in the experiment on MDA-MB-231; 2.78 µM (inactive) in the experiment with MDA-MB-435; 0.386 µM (active) in the experiment with MOLT-4; 1.42 µM (inactive) in the experiment on NCI-H226; 2.73 µM (inactive) in the experiment on NCI-H23. The GI50 in the experiment on NCI-H460 is 6.34 µM (inactive); in the experiment on OVCAR-4 it was 5.78 µM (inactive); with RPMI-8226, 2.61 µM (inactive); in the experiment with RXF 393, 1.71 µM (inactive); in the experiment with SK-MEL-2 it was 2.3 µM (inactive); with TK-10 it was 0.891 µM (active). In addition, the GI50 in the experiment with UACC-257 was 3.52 µM (inactive).
`CCC(=O)c1ccc2[nH]c3c(C)c4c(O)cc(C)nc4c(C)c3c2c1`: the GI50 with ACHN was > 100 µM (inactive); with HL-60 it was > 100 µM (inactive); in the experiment with HOP-62, 92 µM (inactive); in the experiment on HT-29 it was > 100 µM (inactive); in the experiment with KM12 it was > 100 µM (inactive); in the experiment with LOX IMVI it was > 100 µM (inactive). In addition, the GI50 in the experiment with MDA-MB-231 is 40.8 µM (inactive); in the experiment with MDA-MB-435 it was > 100 µM (inactive); with MOLT-4, > 100 µM (inactive); with NCI-H226 it was > 100 µM (inactive); with NCI-H23 it was > 100 µM (inactive); with NCI-H460, > 100 µM (inactive). For the same compound, the GI50 in the experiment on OVCAR-4 is > 100 µM (inactive); in the experiment on RXF 393, > 100 µM (inactive); in the experiment with SF-539, > 100 µM (inactive); with SK-MEL-2, > 100 µM (inactive); in the experiment with TK-10, 63.2 µM (inactive); with UACC-257 it was > 100 µM (inactive).

Source of the values: ChEMBL document CHEMBL1201862, “PubChem BioAssay data set” (2004).
